According to US20260231992A1, “A PROCESS FOR MYCOTOXIN DETOXIFICATION USING LACTOCOCCUS LACTIS” (priority 2023, published 2026):
Values after ≈ are worked out from the molar mass of the structure shown. Like-named read-outs stand apart in the source and are kept apart here.

Assays:
Type in all cases: cell-based
[1] = test system: Fusarium verticillioides BIONCL4; experiment: Antifungal MIC, RPMI-1640, resazurin; conditions: Fusarium verticillioides BIONCL4, 48 to 72 h at 28° C.
[2] = test system: Aspergillus niger BIONCL 12; experiment: Antifungal MIC, RPMI-1640, resazurin; conditions: Aspergillus niger BIONCL 12, 48 to 72 h at 28° C.
[3] = test system: Fusarium graminearum MTCC1893; experiment: microbe, parasite or virus in culture
[4] = test system: Pseudomonas desmolyticum NCIM 2112; experiment: microbe, parasite or virus in culture; conditions: Pseudomonas desmolyticum NCIM 2112, 24 h at 37° C.
[5] = test system: Mycobacterium smegmatis NCIM 5138; experiment: microbe, parasite or virus in culture; conditions: Mycolicibacterium smegmatis, NCIM5138; Mycobacterium smegmatis NCIM 5138, 48 h
[6] = test system: Bacillus subtilis NCIM 2010; experiment: microbe, parasite or virus in culture; conditions: Bacillus subtilis NCIM 2010, 24 h at 37° C.
[7] = test system: Escherichia coli NCIM 2065; experiment: microbe, parasite or virus in culture; conditions: Escherichia coli NCIM 2065, 24 h at 37° C.
[8] = test system: Candida albicans NCIM 3557; experiment: Antifungal MIC, RPMI-1640, resazurin; conditions: Candida albicans NCIM 3557, 48 to 72 h at 28° C.
[9] = test system: Gram-positive and Gram-negative bacteria; experiment: Antibacterial MIC, whole panel of tested strains; conditions: span over all tested bacterial strains; read-out: MICs against tested bacterial strains
[10] = test system: Serratia marcescens NCIM 2919; experiment: microbe, parasite or virus in culture; conditions: Serratia marcescens NCIM 2919, 24 h at 37° C.
[11] = test system: Staphylococcus aureus NCIM 2079; experiment: microbe, parasite or virus in culture; conditions: Staphylococcus aureus NCIM 2079, 24 h at 37° C.
fungal strains tested = experiment: microbe, parasite or virus in culture; conditions: Fusarium graminearum, read-out: MIC against the fungal strains tested
[12] = Fusarium graminearum, MTCC1893, Fusarium graminearum MTCC1893, 48 to 72 h at 28° C.
[13] = NCIM3557, read-out: MIC (converted)

Row | Compound | MIC ([1]; read-out: MIC (converted)) | MIC [2] | MIC ([2]; BIONCL12, read-out: MIC) | MIC [3, 12] | MIC ([4]; NCIM2112, read-out: MIC) | MIC [5] | MIC ([6]; NCIM2010, read-out: MIC) | MIC ([7]; NCIM2065, read-out: MIC) | MIC [8, 13] | MIC [9] | MIC ([10]; NCIM2919, read-out: MIC) | MIC ([11]; NCIM2079, read-out: MIC) | also measured
1 | CC(C)(C)c1ccc(O)c(C(C)(C)C)c1 [C-1, 2,4-di-tert-butylphenol] | 6.25 µg/mL (≈ 30.3 µM) | 12.50 µg/mL (≈ 60.6 µM) | 12.5 µg/mL (≈ 60.6 µM) | 6.25 µg/mL (≈ 30.3 µM) | 6.25 µg/mL (≈ 30.3 µM) | 3.12 µg/mL (≈ 15.1 µM) | 3.12 µg/mL (≈ 15.1 µM) | 3.12 µg/mL (≈ 15.1 µM) | 12.5 µg/mL (≈ 60.6 µM) | 1.56 to 25 µg/mL (≈ 7.56 to 121 µM) | 1.56 µg/mL (≈ 7.56 µM) | 6.25 µg/mL (≈ 30.3 µM) | –
2 | CC1=C(O)C(=O)C(O)CO1 (centres unmarked) [C-2, 3,5-dihydroxy-6-methyl-2,3-dihydro-4H-pyran-4-one] | 3.12 µg/mL (≈ 21.6 µM) | – | 3.12 µg/mL (≈ 21.6 µM) | 6.25 µg/mL (≈ 43.4 µM) | 6.25 µg/mL (≈ 43.4 µM) | 12.5 µg/mL (≈ 86.7 µM) | 6.25 µg/mL (≈ 43.4 µM) | 6.25 µg/mL (≈ 43.4 µM) | 3.12 µg/mL (≈ 21.6 µM) | 1.56 to 25 µg/mL (≈ 10.8 to 173 µM) | 3.12 µg/mL (≈ 21.6 µM) | 3.12 µg/mL (≈ 21.6 µM) | MIC (fungal strains tested): 3.12 to 6.25 µg/mL (≈ 21.6 to 43.4 µM)
3 | NC(=O)c1cnccn1 [C-3, Pyrazine-2-carboxamide] | 12.5 µg/mL (≈ 102 µM) | 25.0 µg/mL (≈ 203 µM) | 25 µg/mL (≈ 203 µM) | 25 µg/mL (≈ 203 µM) | 25 µg/mL (≈ 203 µM) | 12.5 µg/mL (≈ 102 µM) | 25 µg/mL (≈ 203 µM) | 25 µg/mL (≈ 203 µM) | 12.5 µg/mL (≈ 102 µM) | 1.56 to 25 µg/mL (≈ 12.7 to 203 µM) | 25 µg/mL (≈ 203 µM) | 25 µg/mL (≈ 203 µM) | MIC [1]: 12.5 µg/mL (≈ 102 µM); MIC ([3]; Fusarium graminearum MTCC1893, 48 to 72 h at 28° C.): 50.0 µg/mL (≈ 406 µM); MIC [4]: 25.0 µg/mL (≈ 203 µM); MIC [6]: 25.0 µg/mL (≈ 203 µM); MIC [7]: 25.0 µg/mL (≈ 203 µM); MIC [8]: 12.5 µg/mL (≈ 102 µM); MIC [10]: 25.0 µg/mL (≈ 203 µM); MIC [11]: 25.0 µg/mL (≈ 203 µM)
